{
  "source": "patent US20240270801A1",
  "about": "“EPITOPE PEPTIDE OF HUMAN ALPHA-SYNUCLEIN AND PHARMACEUTICAL COMPOSITION INCLUDING SAID PEPTIDE” (Sumitomo Pharma Co., Ltd., priority 2021, published 2024)",
  "key": {"human αSyn": {"system": "human αSyn", "experiment": "Antibody-inducing ability in mice: ELISA antibody titer of immune serum with respect to human αSyn", "assay_type": "in vivo, mouse", "parameters": "key to Antibody titer with respect to human αSyn, relative to control: log titer relative to control conjugate (control = 1)", "settings": "for Antibody titer (N = 4 − 6, mean ± standard deviation) with respect to human αSyn: Example 3, same manner as Example 2; for Antibody titer (N = 4 − 6, mean ± standard deviation) with respect to human αSyn / Antibody titer with respect to human αSyn, relative to control: mice; for Antibody titer with respect to human αSyn (N = 4 − 6, mean ± standard deviation): Example 2, serum 2 weeks after second administration", "experimental": "(§1) Using the various AJ peptide-human αSyn peptide conjugates produced in Example 1, an antibody-inducing ability with respect to human αSyn in mice was evaluated. The various AJ-human αSyn peptide conjugates (250 μg/mouse) or KLH-DMPVDPDN (25 μg/mouse) in physiological saline were intramuscularly administered to balb/c mice (females, 6 weeks old, CLEA Japan, Inc.) twice at a 2-week interval for immunization using aluminum hydroxide (Alum) (InvivoGen, 50 μg/mouse) as an adjuvant. As a negative control, physiological saline (100 μL/mouse) comprising the same amount of aluminum hydroxide was administered twice. Two weeks after the second administration, serum was recovered to evaluate the antibody titer with respect to human αSyn by ELISA.\nELISA was performed by the following method. 96-well plates were coated with human αSyn (Sigma) at 0.2 μg/well. After washing with PBST (Phosphate Buffered Saline comprising 0.05% Tween) once, blocking was performed with 3% skim milk (FUJIFILM Wako Pure Chemical Corporation). After washing with PBST three times, diluted serum was added to cause a reaction at room temperature for 1 hour. Furthermore, after washing with PBST three times, Goat anti-mouse IgG-HRP (abcam) was added to cause a reaction at room temperature for 1 hour. After washing with PBST three times, SureBlue TMB Microwell Peroxidase Substrate (KPL) was added to cause a reaction at room temperature for 10 minutes while light shielding. An equal volume of a TMB Stop Solution (KPL) was added to stop the reaction, and the absorbance at 450 nm was measured. ELISA with respect to aggregated human αSyn was performed by coating with the aggregated human αSyn (Stress Marq) at 15 ng/well instead of human αSyn in the above-mentioned method. […]\nThe antibody-inducing ability of the produced various human αSyn peptide conjugates with respect to human αSyn and aggregated human αSyn in the mice was evaluated by the method described in Example 2 using the antibody titers with respect to human αSyn and aggregated human αSyn of the mouse immune serum. […] In Table 6, the antibody titer of AJ-p242, AJ-p244, AJ-p347, or AJ-p361 is shown with the antibody titer of AJ-p150 as a control being 1 (logarithm). In addition, the antibody titers of AJ-p229, AJ-p237, and AJ-p298 are shown with the antibody titer of AJ-p54 as a control being 1 (logarithm). […]"}, "aggregated human αSyn": {"system": "aggregated human αSyn", "experiment": "Antibody-inducing ability in mice: ELISA antibody titer of immune serum with respect to aggregated human αSyn", "assay_type": "in vivo, mouse", "settings": "for Antibody titer with respect to aggregated human αSyn, relative to control: mice; for Antibody-inducing ability regarding the aggregated human αSyn (in words): Example 2, balb/c mice; for Antibody titer with respect to aggregated human αSyn (N = 4 − 6, mean ± standard deviation): Example 2, serum 2 weeks after second administration", "experimental": "as §1\nELISA was performed by the following method. 96-well plates were coated with human αSyn (Sigma) at 0.2 μg/well. After washing with PBST (Phosphate Buffered Saline comprising 0.05% Tween) once, blocking was performed with 3% skim milk (FUJIFILM Wako Pure Chemical Corporation). After washing with PBST three times, diluted serum was added to cause a reaction at room temperature for 1 hour. Furthermore, after washing with PBST three times, Goat anti-mouse IgG-HRP (abcam) was added to cause a reaction at room temperature for 1 hour. After washing with PBST three times, SureBlue TMB Microwell Peroxidase Substrate (KPL) was added to cause a reaction at room temperature for 10 minutes while light shielding. An equal volume of a TMB Stop Solution (KPL) was added to stop the reaction, and the absorbance at 450 nm was measured. ELISA with respect to aggregated human αSyn was performed by coating with the aggregated human αSyn (Stress Marq) at 15 ng/well instead of human αSyn in the above-mentioned method.\nThe antibody-inducing ability of the AJ-human αSyn peptide conjugates (AJ-p54, AJ-p54-KLH, and AJ-DMPVDPDN) produced in Example 1 with respect to human αSyn and aggregated human αSyn in mice was evaluated. Physiological saline or the AJ-human αSyn peptide conjugate (250 μg/mouse) was intramuscularly administered to balb/c mice (females, 6 weeks old, CLEA Japan, Inc.) twice at a 2-week interval using Alum (InvivoGen, 50 μg/mouse) as an adjuvant. Furthermore, KLH-DMPVDPDN (25 μg/mouse) was administered using Alum (InvivoGen, 50 μg/mouse) as an adjuvant. Two weeks after the second administration, serum was recovered to evaluate the antibody titer by ELISA. ELISA was performed by the method described in Example 2.\nThe antibody-inducing ability of the produced various human αSyn peptide conjugates with respect to human αSyn and aggregated human αSyn in the mice was evaluated by the method described in Example 2 using the antibody titers with respect to human αSyn and aggregated human αSyn of the mouse immune serum. […] In Table 6, the antibody titer of AJ-p242, AJ-p244, AJ-p347, or AJ-p361 is shown with the antibody titer of AJ-p150 as a control being 1 (logarithm). In addition, the antibody titers of AJ-p229, AJ-p237, and AJ-p298 are shown with the antibody titer of AJ-p54 as a control being 1 (logarithm).\nThe antibody-inducing ability of the AJ-human αSyn peptide conjugates with a modified linker with respect to human αSyn and aggregated human αSyn in the mice was evaluated using the antibody titers with respect to human αSyn and aggregated human αSyn of the mouse immune serum. […] In Table 8, the antibody titers of the AJ-human αSyn peptide conjugates with various modified linkers comprising p54 are shown with the antibody titer of AJ-p54 as a control being 1 (logarithm). In addition, the antibody titers of the AJ-human αSyn peptide conjugates with various modified linkers comprising p150 are shown with the antibody titer of AJ-p150 as a control being 1 (logarithm)."}, "[1]": {"settings": "Example 10, modified linker, titer of AJ-p54 or AJ-p150 as control being 1 (logarithm)"}, "[2]": {"settings": "Example 4, balb/c mice, i.m. twice at 2-week interval, Alum, AJ conjugates 250 μg/mouse, KLH-DMPVDPDN 25 μg/mouse"}, "[3]": {"settings": "Example 9, N = 4, titer of AJ-p150 or AJ-p54 as control being 1 (logarithm)"}, "[4]": {"settings": "balb/c mice, i.m. twice at 2-week interval, Alum, AJ conjugates 250 μg/mouse, KLH-DMPVDPDN 25 μg/mouse"}},
  "note": "Non-standard residues stand in square brackets, D forms with d. No end group written: not given here. KLH = keyhole limpet hemocyanin; Ahx = NCCCCCC(=O)O",
  "data": [
    {"substance": "KLH-C-KKDQLGKNE ({KLH}-CKKDQLGKNE) [KLH-p54, KLH-human αSyn peptide conjugate]", "values": [
      {"measurement": "Induction of the antibody to human αSyn (in words)", "setting": "human αSyn; Example 3, mice", "result": "the antibody to human αSyn was induced"},
      {"measurement": "Antibody titer (N = 4 − 6, mean ± standard deviation) with respect to human αSyn", "setting": "human αSyn", "result": "4096 ± 2243"}
    ]},
    {"substance": "ELKLIFLHRLKRLRKRLKRKGKKDQLGKNE [AJ-G-p54]", "values": [
      {"measurement": "Antibody titer with respect to human αSyn, relative to control", "setting": "human αSyn; [1]", "result": 0.89},
      {"measurement": "Antibody titer with respect to aggregated human αSyn, relative to control", "setting": "aggregated human αSyn; [1]", "result": 0.96}
    ]},
    {"substance": "ELKLIFLHRLKRLRKRLKRKXKKDQLGKNE-C-KLH (not fully specified; C-terminal Cys linked to KLH) [AJ-p54-KLH, KLH-modified AJ-human αSyn peptide conjugate, KLH linked via cysteine to the C-terminal]", "values": [
      {"measurement": "Induction of the antibody to human αSyn (in words)", "setting": "human αSyn; Example 3, mice", "result": "induced to the same extent"},
      {"measurement": "Antibody titer (N = 4 − 6, mean ± standard deviation) with respect to human αSyn", "setting": "human αSyn", "result": "1621 ± 681"},
      {"measurement": "Induction of the antibody to human αSyn (in words)", "setting": "human αSyn; Example 4, balb/c mice", "result": "induced"},
      {"measurement": "Antibody titer with respect to human αSyn (mean ± standard deviation)", "setting": "human αSyn; [2]", "result": "1621 ± 681"},
      {"measurement": "Induction of the antibody to aggregated human αSyn (in words)", "setting": "aggregated human αSyn; Example 4, balb/c mice", "result": "induced"},
      {"measurement": "Antibody titer with respect to aggregated human αSyn (mean ± standard deviation)", "setting": "aggregated human αSyn; [2]", "result": "640 ± 314"}
    ]},
    {"substance": "ELKLIFLHRLKRLRKRLKRKXHAFEMPSEEG (ELKLIFLHRLKRLRKRLKRK[Ahx]HAFEMPSEEG) [AJ-p347]", "values": [
      {"measurement": "Antibody titer compared with control conjugate (in words)", "setting": "human αSyn; Example 9, mice, human αSyn and aggregated human αSyn, control AJ-p150 or AJ-p54", "result": "same level of an antibody titer"},
      {"measurement": "Antibody titer with respect to human αSyn, relative to control", "setting": "human αSyn; [3]", "result": 0.97},
      {"measurement": "Antibody titer with respect to aggregated human αSyn, relative to control", "setting": "aggregated human αSyn; [3]", "result": 0.97}
    ]},
    {"substance": "ELKLIFLHRLKRLRKRLKRKXKKDQLGKNEE (ELKLIFLHRLKRLRKRLKRK[Ahx]KKDQLGKNEE) [AJ-p167]", "values": [
      {"measurement": "Antibody titer with respect to human αSyn (N = 4 − 6, mean ± standard deviation)", "setting": "human αSyn; [4]", "result": "2389 ± 1399"},
      {"measurement": "Antibody-inducing ability regarding the aggregated human αSyn (in words)", "setting": "aggregated human αSyn", "result": "particularly strong antibody-inducing ability"},
      {"measurement": "Antibody titer with respect to aggregated human αSyn (N = 4 − 6, mean ± standard deviation)", "setting": "aggregated human αSyn; [4]", "result": "1664 ± 1409"}
    ]},
    {"substance": "ELKLIFLHRLKRLRKRLKRKDDAKKEAYEMPSEE [AJ-DDAKK-p150]", "values": [
      {"measurement": "Antibody titer with respect to human αSyn, relative to control", "setting": "human αSyn; [1]", "result": 1.14},
      {"measurement": "Antibody titer with respect to aggregated human αSyn, relative to control", "setting": "aggregated human αSyn; [1]", "result": 1.30}
    ]},
    {"substance": "ELKLIFLHRLKRLRKRLKRKGEAYEMPSEE [AJ-G-p150]", "values": [
      {"measurement": "Antibody titer with respect to human αSyn, relative to control", "setting": "human αSyn; [1]", "result": 0.96},
      {"measurement": "Antibody titer with respect to aggregated human αSyn, relative to control", "setting": "aggregated human αSyn; [1]", "result": 0.95}
    ]},
    {"substance": "ELKLIFLHRLKRLRKRLKRKϵKKKDQLGKNE [AJ-εK-p54]", "values": [
      {"measurement": "Antibody titer with respect to human αSyn, relative to control", "setting": "human αSyn; [1]", "result": 0.70},
      {"measurement": "Antibody titer with respect to aggregated human αSyn, relative to control", "setting": "aggregated human αSyn; [1]", "result": 0.81}
    ]},
    {"substance": "ELKLIFLHRLKRLRKRLKRKϵKKKKKKDQLGKNE [AJ-εKKKK-p54]", "values": [
      {"measurement": "Antibody titer with respect to human αSyn, relative to control", "setting": "human αSyn; [1]", "result": 0.77},
      {"measurement": "Antibody titer with respect to aggregated human αSyn, relative to control", "setting": "aggregated human αSyn; [1]", "result": 0.90}
    ]},
    {"substance": "ELKLIFLHRLKRLRKRLKRKXEAYEMPSEDG (ELKLIFLHRLKRLRKRLKRK[Ahx]EAYEMPSEDG) [AJ-p283, AJ peptide linked to p283 via ε-Acp (X)]", "values": [
      {"measurement": "Antibody titer with respect to human αSyn (N = 4 − 6, mean ± standard deviation)", "setting": "human αSyn; [4]", "result": "2304 ± 1289"},
      {"measurement": "Antibody-inducing ability regarding the aggregated human αSyn (in words)", "setting": "aggregated human αSyn", "result": "particularly strong antibody-inducing ability"},
      {"measurement": "Antibody titer with respect to aggregated human αSyn (N = 4 − 6, mean ± standard deviation)", "setting": "aggregated human αSyn; [4]", "result": "1152 ± 644"}
    ]},
    {"substance": "KLH-C-ELKLIFLHRLKRLRKRLKRKXKKDQLGKNE ({KLH}-CELKLIFLHRLKRLRKRLKRK[Ahx]KKDQLGKNE) [KLH-AJ-p54, KLH-modified AJ-human αSyn peptide conjugate, KLH linked via cysteine to the N-terminal]", "values": [
      {"measurement": "Induction of the antibody to human αSyn (in words)", "setting": "human αSyn; Example 3, mice", "result": "induced to the same extent"},
      {"measurement": "Antibody titer (N = 4 − 6, mean ± standard deviation) with respect to human αSyn", "setting": "human αSyn", "result": "1707 ± 1240"}
    ]}
  ]
}
